In ChEMBL document CHEMBL5550173, “Design, synthesis and biological evaluation of indoline-maleimide conjugates as potential antitumor agents for the treatment of colorectal cancer” (Bioorg Med Chem, 2024):
Calls of active or inactive are those of the source. The calls are words filed in the database; no cut-off is given here.

Tests used:
RKO [1] = assay: Cytotoxicity against human RKO cells at 5 uM incubated for 72 hrs by MTS assay; format: functional
HT-29 = assay: Cytotoxicity against human HT-29 cells at 5 uM incubated for 72 hrs by MTS assay; format: functional
HCT-116 [2] = assay: Cytotoxicity against human HCT-116 cells incubated for 72 hrs by MTS assay; format: functional, cell-based; conditions: HCT-116, 72 h
RKO [3] = assay: Inhibition of colony formation in human RKO cells incubated about 10 days with every 3 days of media replacement by crystal violet staining based assay; format: functional, cell-based; conditions: dose 1-4 µM, time 10.0 day
RKO [4] = assay: Inhibition of cell migration in human RKO cells at 2.5 to 10 uM measured upto 48 hrs by scratch wound healing assay; format: functional, cell-based; conditions: dose 2.5-10 µM
HCT-116 [5] = assay: Induction of apoptosis in human HCT-116 cells assessed as viable cells at 2.5 uM incubated for 48 hrs by Annexin V-PE and propidium iodide staining based flow cytometry analysis (reference value: 97.8%); format: functional; conditions: read-out: Activity
HCT-116 [6] = assay: Induction of apoptosis in human HCT-116 cells assessed as late apoptotic cells at 2.5 uM incubated for 48 hrs by Annexin V-PE and propidium iodide staining based flow cytometry analysis (reference value: 0.5%); format: functional
HCT-116 [7] = assay: Induction of apoptosis in human HCT-116 cells assessed as necrotic cells at 2.5 uM incubated for 48 hrs by Annexin V-PE and propidium iodide staining based flow cytometry analysis (reference value: 1.3%); format: functional
HCT-116 [8] = assay: Induction of apoptosis in human HCT-116 cells assessed as viable cells at 5 uM incubated for 48 hrs by Annexin V-PE and propidium iodide staining based flow cytometry analysis (reference value: 97.8%); format: functional; conditions: read-out: Activity
HCT-116 [9] = assay: Induction of apoptosis in human HCT-116 cells assessed as necrotic cells at 5 uM incubated for 48 hrs by Annexin V-PE and propidium iodide staining based flow cytometry analysis (reference value: 1.3%); format: functional
RKO [10] = assay: Induction of apoptosis in human RKO cells assessed as early apoptotic cells at 2.5 uM incubated for 48 hrs by Annexin V-PE and propidium iodide staining based flow cytometry analysis (reference value: 0.2%); format: functional
RKO [11] = assay: Induction of apoptosis in human RKO cells assessed as late apoptotic cells at 2.5 uM incubated for 48 hrs by Annexin V-PE and propidium iodide staining based flow cytometry analysis (reference value: 0.3%); format: functional
RKO [12] = assay: Induction of apoptosis in human RKO cells assessed as viable cells at 5 uM incubated for 48 hrs by Annexin V-PE and propidium iodide staining based flow cytometry analysis (reference value: 99.2%); format: functional; conditions: read-out: Activity
RKO [13] = assay: Induction of apoptosis in human RKO cells assessed as late apoptotic cells at 5 uM incubated for 48 hrs by Annexin V-PE and propidium iodide staining based flow cytometry analysis (reference value: 0.3%); format: functional
RKO [14] = assay: Induction of apoptosis in human RKO cells assessed as late apoptotic cells at 10 uM incubated for 48 hrs by Annexin V-PE and propidium iodide staining based flow cytometry analysis (reference value: 0.3%); format: functional
HCT-116 [15] = assay: Induction of apoptosis in human HCT-116 cells assessed as upregulation of cleaved caspase-7 expression incubated for 48 hrs by Western blotting analysis; format: functional, cell-based; conditions: dose 2.5-10 µM
HCT-116 [16] = assay: Induction of cell cycle arrest in human HCT-116 cells assessed as accumulation of cells at G0/G1 phase incubated for 48 hrs by propidium iodide staining based flow cytometry analysis; format: functional; conditions: dose 2.5-10 µM
HCT-116 [17] = assay: Induction of cell cycle arrest in human HCT-116 cells assessed as decrease in S phase cells incubated for 48 hrs by propidium iodide staining based flow cytometry analysis; format: functional; conditions: dose 2.5-10 µM
HCT-116 [18] = assay: Induction of cell cycle arrest in human HCT-116 cells assessed as downregulation of CDK4 expression at 2.5 to 10 uM incubated for 48 hrs by Western blotting analysis; format: functional, cell-based; conditions: dose 2.5-10 µM
HCT-116 [19] = assay: Induction of cell cycle arrest in human HCT-116 cells assessed as downregulation of CDK6 expression at 2.5 to 10 uM incubated for 48 hrs by Western blotting analysis; format: functional, cell-based; conditions: dose 2.5-10 µM
HCT-116 [20] = assay: Induction of cell cycle arrest in human HCT-116 cells assessed as downregulation of p-Rb expression at 2.5 to 10 uM incubated for 48 hrs by Western blotting analysis; format: functional, cell-based; conditions: dose 2.5-10 µM
HCT-116 [21] = assay: Induction of cell cycle arrest in human HCT-116 cells assessed as upregulation of p53 expression at 2.5 to 10 uM incubated for 48 hrs by Western blotting analysis; format: functional, cell-based; conditions: dose 2.5-10 µM
HCT-116 [22] = assay: Effect on RB1 expression in human HCT-116 cells at 2.5 to 10 uM incubated for 48 hrs by Western blotting analysis; format: functional, cell-based; conditions: dose 2.5-10 µM
RKO [23] = assay: Induction of cell cycle arrest in human RKO cells assessed as downregulation of CDK6 expression at 2.5 to 10 uM incubated for 48 hrs by Western blotting analysis; format: functional, cell-based; conditions: dose 2.5-10 µM
RKO [24] = assay: Induction of cell cycle arrest in human RKO cells assessed as downregulation of p-Rb expression at 2.5 to 10 uM incubated for 48 hrs by Western blotting analysis; format: functional, cell-based; conditions: dose 2.5-10 µM
RKO [25] = assay: Effect on cyclin D1 expression in human RKO cells at 2.5 to 10 uM incubated for 48 hrs by Western blotting analysis; format: functional, cell-based; conditions: dose 2.5-10 µM
RKO [26] = assay: Effect on RB1 expression in human RKO cells at 2.5 to 10 uM incubated for 48 hrs by Western blotting analysis; format: functional, cell-based; conditions: dose 2.5-10 µM
[27] = target: Serine/threonine-protein kinase AKT (Homo sapiens) (UniProt P31751+Q9Y243+P31749); assay: Inhibition of AKT phosphorylation in human HCT-116 cells by incubated for 48 hrs Western blotting analysis; format: cell-based; conditions: dose 2.5-10 µM
Serine/threonine-protein kinase AKT (Homo sapiens), sequence (P31749 whole entry, looked up): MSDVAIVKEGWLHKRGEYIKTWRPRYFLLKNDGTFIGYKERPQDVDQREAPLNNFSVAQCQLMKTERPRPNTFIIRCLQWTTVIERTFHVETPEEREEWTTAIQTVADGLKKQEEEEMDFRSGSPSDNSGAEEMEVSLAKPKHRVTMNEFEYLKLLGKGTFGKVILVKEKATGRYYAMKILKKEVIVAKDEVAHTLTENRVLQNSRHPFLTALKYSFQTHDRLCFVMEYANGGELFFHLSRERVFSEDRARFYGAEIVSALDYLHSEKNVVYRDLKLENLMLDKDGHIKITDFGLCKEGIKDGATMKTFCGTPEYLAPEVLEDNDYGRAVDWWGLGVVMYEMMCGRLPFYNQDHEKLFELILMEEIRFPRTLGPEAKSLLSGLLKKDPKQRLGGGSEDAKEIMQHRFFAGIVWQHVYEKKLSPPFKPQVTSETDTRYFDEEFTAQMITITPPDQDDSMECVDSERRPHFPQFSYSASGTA
Serine/threonine-protein kinase AKT (Homo sapiens), sequence (P31751 whole entry, looked up): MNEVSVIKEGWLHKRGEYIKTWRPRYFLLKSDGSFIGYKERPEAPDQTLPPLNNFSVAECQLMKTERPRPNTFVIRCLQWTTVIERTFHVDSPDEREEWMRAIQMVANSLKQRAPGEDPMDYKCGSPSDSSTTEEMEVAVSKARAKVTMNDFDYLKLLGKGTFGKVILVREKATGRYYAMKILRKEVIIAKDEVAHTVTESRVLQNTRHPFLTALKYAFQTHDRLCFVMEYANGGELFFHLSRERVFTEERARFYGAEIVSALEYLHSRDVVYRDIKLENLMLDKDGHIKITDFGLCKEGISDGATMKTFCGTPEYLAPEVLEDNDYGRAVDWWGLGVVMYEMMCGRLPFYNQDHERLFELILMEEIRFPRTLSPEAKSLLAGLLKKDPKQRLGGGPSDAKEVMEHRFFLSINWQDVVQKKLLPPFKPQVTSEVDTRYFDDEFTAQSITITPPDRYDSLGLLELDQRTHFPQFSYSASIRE
Serine/threonine-protein kinase AKT (Homo sapiens), sequence (Q9Y243 whole entry, looked up): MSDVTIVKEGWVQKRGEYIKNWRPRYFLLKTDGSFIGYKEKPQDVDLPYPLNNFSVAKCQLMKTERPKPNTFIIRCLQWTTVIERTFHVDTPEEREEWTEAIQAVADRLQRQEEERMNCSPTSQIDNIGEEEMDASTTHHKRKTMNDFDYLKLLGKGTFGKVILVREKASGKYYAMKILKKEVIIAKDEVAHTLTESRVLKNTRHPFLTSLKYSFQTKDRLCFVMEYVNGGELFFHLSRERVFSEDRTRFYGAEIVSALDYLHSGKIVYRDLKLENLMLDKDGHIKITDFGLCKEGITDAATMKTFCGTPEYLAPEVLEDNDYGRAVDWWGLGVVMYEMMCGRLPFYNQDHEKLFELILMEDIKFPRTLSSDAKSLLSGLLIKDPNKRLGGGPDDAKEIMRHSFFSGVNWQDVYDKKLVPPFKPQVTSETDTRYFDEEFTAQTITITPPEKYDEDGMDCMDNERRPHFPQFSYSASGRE

HCT-116 [28] = assay: Antitumor activity against human HCT-116 cells xenografted in BALB/c mouse assessed as tumor growth suppression at 5 to 10 mg/kg, ip measured every 2 days; format: functional, organism-based; conditions: dose 5-10 mg/kg
[29] = Toxicity in BALB/c nude mouse assessed as changes in body weight at 5 to 10 mg/kg, ip administered every 2 days; format: organism-based; conditions: in vivo, 48 h, dose 5-10 mg/kg
[30] = Toxicity in BALB/c nude mouse assessed as adverse effect at 5 to 10 mg/kg, ip administered every 2 days; format: organism-based; conditions: in vivo, 48 h, dose 5-10 mg/kg
HCT-116 [31] = assay: Antitumor activity against human HCT-116 cells xenografted in BALB/c mouse assessed as tumor growth suppression at 5 to 10 mg/kg, ip measured every 2 days by H and E staining based assay; format: functional, organism-based; conditions: dose 5-10 mg/kg
[32] = Acute toxicity in BALB/c mouse assessed as appearance of abnormal behavior at 50 to 100 mg/kg, ip measured every 2 days; format: organism-based; conditions: in vivo, 48 h, dose 50-100 mg/kg
[33] = Acute toxicity in BALB/c mouse assessed as body weight loss at 50 to 100 mg/kg, ip measured every 2 days; format: organism-based; conditions: in vivo, 48 h, dose 50-100 mg/kg
[34] = Acute toxicity in BALB/c mouse assessed as heart lesion at 50 to 100 mg/kg, ip measured every 2 days by H and E staining based assay; format: organism-based; conditions: in vivo, 48 h, dose 50-100 mg/kg
[35] = Acute toxicity in BALB/c mouse assessed as liver lesion at 50 to 100 mg/kg, ip measured every 2 days by H and E staining based assay; format: organism-based; conditions: in vivo, 48 h, dose 50-100 mg/kg
[36] = Acute toxicity in BALB/c mouse assessed as spleen lesion at 50 to 100 mg/kg, ip measured every 2 days by H and E staining based assay; format: organism-based; conditions: in vivo, 48 h, dose 50-100 mg/kg
[37] = Acute toxicity in BALB/c mouse assessed as kidney lesion at 50 to 100 mg/kg, ip measured every 2 days by H and E staining based assay; format: organism-based; conditions: in vivo, 48 h, dose 50-100 mg/kg

C=C(C)C(=O)N1CCc2cccc(C3=CC(=O)N(C)C3=O)c21
Activity (RKO [1]): 100.1%
Activity (HT-29): 99.28%
IC50 (HCT-116 [2]): 1.57 µM
inhibition (RKO [3]): Dose-Dependent Effect
inhibition (RKO [4]): Active
viability at 2.5 µM (HCT-116 [5]): 96.5%
Activity (HCT-116 [6]): 1%
Activity (HCT-116 [7]): 1.8%
viability at 5 µM (HCT-116 [8]): 93.6%
Activity (HCT-116 [9]): 3.2%
Activity (RKO [10]): 0.5%
Activity (RKO [11]): 0.4%
viability at 5 µM (RKO [12]): 98%
Activity (RKO [13]): 0.4%
Activity (RKO [14]): 1.1%
Activity (HCT-116 [15]): Dose-Dependent Effect
Activity (HCT-116 [16]): Dose-Dependent Effect
Activity (HCT-116 [17]): Dose-Dependent Effect
Activity (HCT-116 [18]): Active
Activity (HCT-116 [19]): Active
Activity (HCT-116 [20]): Active
Activity (HCT-116 [21]): Active
Activity (HCT-116 [22]): inactive
Activity (RKO [23]): Active
Activity (RKO [24]): Active
Activity (RKO [25]): inactive
Activity (RKO [26]): inactive
inhibition [27]: Dose-Dependent Effect
Activity (HCT-116 [28]): Active
Activity [29]: Non-Toxic
Activity [30]: Non-Toxic
Activity (HCT-116 [31]): Active
Activity [32]: Non-Toxic
Activity [33]: Non-Toxic
Activity [34]: Non-Toxic
Activity [35]: Non-Toxic
Activity [36]: Non-Toxic
Activity [37]: Non-Toxic
